The values that follow come from PubChem BioAssay (NCI).

Common to all, as to test: NCI-60 cell line screen, 48 h
The test system of experiment [1] is A498 renal.
The test system of experiment [2] is MOLT-4 leukemia.
In experiment [3] the test system is RPMI-8226 leukemia.
Experiment [4] relates to COLO 205 colon.
Experiment [5] has as its system SK-MEL-28 melanoma.
Experiment [6] has as its system HL-60(TB) leukemia.
Experiment [7] concerns SNB-19 CNS.
Experiment [8] has as its system NCI-H226 lung.
The test system of experiment [9] is MDA-MB-231 breast.
In experiment [10] the test system is SR leukemia.
In experiment [11] the test system is CAKI-1 renal.
Experiment [12] has as its system OVCAR-5 ovarian.
For experiment [13], the system named is HOP-62 NSCLC.
Experiment [14] relates to LOX IMVI melanoma.
Experiment [15] has as its system HCT-116 colon.
Experiment [16] deals with UACC-257 melanoma.
The subject of experiment [17] is PC-3 prostate.
Experiment [18] deals with IGROV1 ovarian.
Experiment [19] deals with EKVX NSCLC.
The subject of experiment [20] is K-562 leukemia.

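Five concentrations, 48 hours, 96-well plates. TGI is the concentration that stops growth completely.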

In the case of `CC[C@]1(Cc2ccc(OC)c(OC)c2)C=[N+]([O-])O[C@H](OC2CCCCC2c2ccccc2)[C@@H]1OC(C)=O` (stereo not given in full), the TGI in [1] was greater than 100 µM; in experiment [2] it was 63 µM; in [3] it was 69.7 µM; in experiment [4], 40.5 µM; in [5] it was greater than 100 µM; in experiment [6] it was 40.9 µM. Also, the TGI is greater than 100 µM in [7]; greater than 100 µM in experiment [8]; greater than 100 µM in experiment [9]; 91.1 µM in experiment [10]; 56.8 µM in experiment [11]; greater than 100 µM in experiment [12]. The TGI in experiment [13], in [14], in [15], in experiment [16], in [17] and in experiment [18] was greater than 100 µM in each case. Moreover, the TGI in experiment [19] and in experiment [20] was greater than 100 µM throughout.

Take `CC(=O)NC1C(O)C(O)C(CO)OC1n1nc(SCc2ccccc2)c(=O)[nH]c1=O` (stereo not given): the TGI in experiment [1], in [2], in experiment [3], in [4], in experiment [5] and in [6] was greater than 100 µM each time. Besides, the TGI in experiment [7], in experiment [8], in [9], in [10], in [11] and in experiment [12] was greater than 100 µM throughout. For the same compound, the TGI in experiment [13], in [14], in experiment [15], in experiment [16], in experiment [17] and in experiment [18] was greater than 100 µM throughout. The TGI in experiment [19] and in experiment [20] was greater than 100 µM in each case.

Take `CCOC(=O)c1ccc(OCc2nc3cc(C(F)(F)F)ccc3nc2-c2ccccc2)cc1`: the TGI in experiment [1], in experiment [2], in experiment [3], in experiment [4], in [5] and in experiment [6] was greater than 100 µM in each case. In addition, the TGI in experiment [7], in experiment [8], in experiment [9], in [10], in experiment [11] and in experiment [12] was greater than 100 µM each time. The TGI in experiment [13], in experiment [14], in experiment [15], in [16], in experiment [17] and in [18] was greater than 100 µM throughout. In addition, the TGI in experiment [19] and in experiment [20] was greater than 100 µM in each case.

With `SCc1ccc(-c2ccc(CS)cc2)cc1`, the TGI in experiment [1] was greater than 64.3 µM; in experiment [2], 6.37 µM; in experiment [3], 30.6 µM; in experiment [4] it was 37.4 µM; in experiment [5] it was 24.3 µM; in experiment [6], 12.4 µM. The TGI was determined as 36.4 µM in experiment [7]; 36.9 µM in experiment [8]; 31 µM in experiment [9]; 5.79 µM in experiment [10]; 18.5 µM in experiment [11]; 27 µM in experiment [12]. Further, the TGI turned out to be 14 µM in experiment [13]; 15 µM in experiment [14]; 17.8 µM in [15]; 45.2 µM in experiment [16]; 34 µM in [17]; 32.5 µM in [18]. Also, the figures for the TGI in [19] and in [20] were 54.1 µM and 26.9 µM, respectively.

For the compound `COCn1c(=O)n(C)c(=O)c2c1nc1c(c(=O)n(C)c(=O)n1COC)[n+]2[O-]`, the TGI in experiment [1] is 82.8 µM; in [2], 29.5 µM; in experiment [3], 37.8 µM; in experiment [4], 31.8 µM; in [5], greater than 100 µM; in experiment [6], 39.1 µM. The TGI in [7] is greater than 100 µM; in experiment [8], 40.8 µM; in experiment [9] it was 44.4 µM; in experiment [10], 21.3 µM; in experiment [11], 64.5 µM; in [12], 97.2 µM. Further, the TGI is 59.1 µM in [13]; 27.7 µM in experiment [14]; 39.5 µM in [15]; 54.8 µM in experiment [16]; 34.1 µM in [17]; 48.9 µM in experiment [18]. Besides, the TGI was found to be 44.1 µM in experiment [19] and 24 µM in [20].

As to `CC(=O)N(C(=O)CC(=O)NNCc1ccccc1Cl)c1ccc(Cl)cc1`, the TGI in experiment [1], in [2], in experiment [3], in experiment [4], in [5] and in [6] was greater than 10 µM in each case. The TGI in experiment [7], in [8], in experiment [9], in experiment [10], in [11] and in experiment [12] was greater than 10 µM each time. Moreover, the TGI in [13], in experiment [14], in [15], in experiment [16], in [17] and in experiment [18] was greater than 10 µM each time. The TGI in experiment [19] and in experiment [20] was greater than 10 µM throughout.

Consider `O=c1oc2cc(O)ccc2c(O)c1C(c1ccc2ccccc2c1)c1c(O)c2ccc(O)cc2oc1=O`, for which the TGI in experiment [1] is greater than 100 µM; in [2] it was greater than 100 µM; in experiment [3] it was 85.2 µM; in experiment [4], greater than 100 µM; in experiment [5] it was greater than 100 µM; in [6] it was 69.2 µM. The TGI is 49.3 µM in [7]; greater than 100 µM in experiment [8]; greater than 100 µM in experiment [9]; 67.1 µM in [10]; greater than 100 µM in [11]; greater than 100 µM in experiment [12]. Also, the TGI in experiment [13], in experiment [14], in [15], in experiment [16], in experiment [17] and in experiment [18] was greater than 100 µM throughout. Further, the TGI in [19] and in experiment [20] was greater than 100 µM in each case.
